The values below come from patent US20090028795A1, “NOD1 as an Anti-Tumor Agent” (priority 2005, published 2009).

Holding throughout (type): cell-based, human
One experiment deals with MCF-7 C20/Nod1 cells. Kind of experiment: Propidium iodide exclusion apoptosis assay, estrogen/tamoxifen studies. The settings on record: γTriDAP-induced, C20/Nod1 cells. The source says: FIG. 12A-C illustrates that estrogen increases γTriDAP-induced apoptosis and tamoxifen inhibits γTriDAP-induced apoptosis in various MCF-7 tumor cell lines. FIG. 12A graphically illustrates the percent apoptosis in MCF-7 Blasto, MCF-7 C20 and MCF-7 C20/Nod1 cells cultured in increasing amounts or estrogen and either cycloheximide (CHX) or CHX plus γTriDAP (γTri). FIG. 12B graphically illustrates the percent apoptosis in MCF-7 Blasto, MCF-7 C20 and MCF-7 C20/Nod1 cells cultured in increasing amounts of tamoxifen and either cycloheximide (CHX) or CHX plus γTriDAP (γTri). For the estrogen studies, MCF-7 cells were cultured in charcoal-treated medium and stimulated with γTriDAP/CHX in the presence of increasing concentrations of estrogen (E2) and cell viability was measured by propidium iodide (PI) exclusion. For the tamoxifen studies, cells were treated with tamoxifen prior to addition of γTriDAP/CHX and cell viability measured by PI exclusion. […] Total protein extracts from MCF-7 Blasto, MCF-7 C20 and MCF-7 C20/Nod1 cells and from cells isolated from tumors were analyzed by immunoblotting using antibody against estrogen receptor (ERα), and ERK2 as loading control.
(§1) Cell viability assays. Propidium iodide exclusion assay: Cells were stimulated as indicated for 2 days. Subsequently, cells were harvested, washed twice in FACS buffer (PBS containing 1% FCS and 0.1% NaN3) and resuspended in propidium iodide (PI)-containing FACS buffer (4 ug/ml). The extent of cell death was analyzed with a FACSCalibur flow cytometer (Becton Dickinson, Mountain View, Calif.). DAPI staining: MCF-7 cells were plated in chamber slides, and stimulated for 2 days. Cells were washed with PBS and apoptotic nuclei were stained with 1 μg/ml DAPI (Sigma Chemical Co., St. Louis, Mo.). Cells were fixed in 4% paraformaldehyde and examined by fluorescence microscopy.
To determine whether the presence of estrogens modulates Nod1-induced apoptotic pathway, cells were cultured in medium containing charcoal-treated serum.

In experiment [1] the test system is HT29. In words: IL-8 production, HT29 cells stably expressing Nod1. The settings on record: HT29, Nod1 stably expressed; treatment as labelled.
Experiment [2] deals with 293. Kind of experiment: IL-8 production, 293 cells stably expressing Nod1. The settings on record: 293, Nod1 stably expressed; treatment as labelled.
The test system of experiment [3] is MCF-7 cells. In words: Propidium iodide exclusion cell death assay, wild-type (parental/Blasto) MCF-7 cells. The settings on record: for cell death / apoptosis: wild type cells, agent alone. On the procedure:
as §1
To further investigate the role of Nod1 in apoptosis, a variety of cell types were incubated with the Nod1 ligand, […] (γTriDAP), which specifically activates Nod1. The cell types tested included the parental MCF-7 cell line, the Nod1-deficient MCF-7C20 clone, and a cell line engineered to contain an additional human Nod1 allele (MCF-7Nod1) so that Nod1 was over-expressed. To determine whether the resistance of C20 cells to γTriDAP-induced apoptosis resulted from the absence of Nod1, human Nod1 was stably expressed in MCF-7 C20 cells to produce Nod1-sufficient C20 cells (C20/Nod1). As another control, the parental MCF-7 cell line was transfected with an empty retroviral vector to generate MCF-7 Blasto cells. Cells were treated with γTriDAP in the presence or absence of cycloheximide (CHX) and cell death was then determined by propidium iodide staining and flow cytometry.

A further experiment has as its system CaCo2. In words: IL-8 production, CaCo2 cells stably expressing Nod1. The settings on record: CaCo2, Nod1 stably expressed; treatment as labelled.
The subject of another experiment is JNK. In words: JNK phosphorylation in MCF-7 RIP2 transfectants. The text has this:
FIG. 7A-C illustrate that both wild-type RIP2 and a kinase-deficient (KD) mutant of RIP2 are functional in the NOD1 apoptosis pathway. However, RIP2 lacking the CARD domain acts as a dominant negative inhibitor of NOD1 signaling. FIG. 7A graphically illustrates the percentage of cells that were apoptotic in populations of wild type RIP2, RIP2 KD and RIP2 ΔCARD cells. MCF-7 cells were stably transfected with wild type Myc-RIP2, Myc-RIP2 KD, and Myc-RIP2 ΔCARD and were left untreated or were treated with γTriDAP in the presence or absence of CHX (3 ug/ml) for 48 h. Cells were incubated with PI and apoptotic cell death was measured by flow cytometry. […] FIG. 7C illustrates γTriDAP-induction of phosphorylation of JNK in RIP2 wild types, MCF-7 RIP2 KD, and RIP2 ΔCARD cells.
The effect of RIP2 expression on γTriDAP-induced JNK phosphorylation was also examined (FIG. 7C).

Experiment [4] deals with 293. In words: Apoptosis (PI staining), 293 cells stably expressing Nod1. The settings on record: 293, Nod1 stably expressed; treatment as labelled. As to the method:
as §1
(§2) To determine if Nod1-dependent apoptosis occurs in other human cell lines, a series of epithelial cell lines were examined where Nod1 was stably expressed to enhance sensitivity to activation of the Nod1 pathway. Cells were treated with TNFα (T) and γTriDAP (γ) in the presence or absence of CHX (C) and monitored for viability by PI staining as a measure of apoptosis (Table 1).

For a further experiment, the system named is MCF-7 C20 cells. In words: Propidium iodide exclusion cell death assay, Nod1-deficient MCF-7 C20 cells. The settings on record: MCF-7C20 (without Nod1 expression), γTriDAP plus cycloheximide. As to the method:
as §1
To further investigate the role of Nod1 in apoptosis, a variety of cell types were incubated with the Nod1 ligand, […] (γTriDAP), which specifically activates Nod1. The cell types tested included the parental MCF-7 cell line, the Nod1-deficient MCF-7C20 clone, and a cell line engineered to contain an additional human Nod1 allele (MCF-7Nod1) so that Nod1 was over-expressed. […] Cells were treated with γTriDAP in the presence or absence of cycloheximide (CHX) and cell death was then determined by propidium iodide staining and flow cytometry.

The subject of experiment [5] is MCF-7 C20 cells with Nod2. Kind of experiment: Apoptosis in MCF-7 C20 cells complemented with Nod2. The settings on record: MCF-7 C20 complemented with Nod2 (data not shown).
In another experiment the test system is A431. In words: Apoptosis (PI staining), A431 cells stably expressing Nod1. The settings on record: A431, Nod1 stably expressed; treatment as labelled. On the procedure: as §1, §2
The subject of experiment [6] is HT29. Kind of experiment: Apoptosis (PI staining), HT29 cells stably expressing Nod1. The settings on record: HT29, Nod1 stably expressed; treatment as labelled. On the procedure:
as §1, §2

Experiment [7] has as its system MCF-7 cells. In words: Apoptosis in the presence of TNFα (FIG. 8C). The settings on record: with TNFα. On the procedure: FIG. 8A-D illustrate that a synergistic relationship exists between NOD1 and TNFα. FIG. 8A graphically illustrates that the percentage of apoptotic cells increases in dose-specific manner as the concentration of NOD1 increases from 0.0 to 100 μg/ml and the concentration of TNFα increases from 0.5 ng/ml to 1 ng/ml. FIG. 8B graphically illustrates that the percentage of apoptotic cells increases in dose-specific manner as the concentration of cycloheximide increases from 0.0 to 3 μg/ml and the concentration of TNFα increases from 0.5 ng/ml to 1 ng/ml. […] FIG. 8D illustrates NOD1 expression at various time points after exposure of MCF-7 cells to TNFα.

Non-standard residues stand in square brackets, D forms with d. No end group written: not given here. DAP = diaminopimelic acid

In the case of “D-Ala-L-Glu-Diaminopimelic acid ([dA]-Glu-[DAP]; also: Glu joined to DAP through its gamma carboxyl (γTriDAP))”, the apoptosis is 80% in the experiment on MCF-7 C20/Nod1 cells (with steroids); 10% with MCF-7 C20/Nod1 cells (without steroids (charcoal-treated serum)); “resistant” with 293 [4]; “totally resistant” in the experiment on MCF-7 C20 cells; “did not result in apoptosis” in experiment [5]; “only undergo apoptosis when γTriDAP was added together with TNFα and CHX” in the experiment on A431. For the same substance, the apoptosis entry in the experiment with HT29 [6] is on record as “poorly responsive”. The “IL−8 Production” value in the experiment with HT29 [1] is reported as “poorly responsive”; in the experiment with 293 [2], “do release IL-8”; with CaCo2, “poorly responsive”. Besides, the “cell death / apoptosis” value in the experiment on MCF-7 cells [3] is listed as “No cell death”; in the experiment with MCF-7 cells [3] (listed as 7-TriDAP), “did not induce apoptosis”. In the experiment on MCF-7 cells [3] (wild-type MCF-7, γTriDAP 50 ug/ml in the presence of cycloheximide 3 ug/ml, 48 h), the cell death result is recorded as “about 25%”. In addition, the “phosphorylation of JNK” value in the experiment on JNK (MCF-7 expressing wild type RIP2 or RIP2 KD, in the presence of cycloheximide, 2 h) was “induced phosphorylation of JNK”; in the experiment on JNK (RIP2ΔCARD cells, with cycloheximide), “no such effect”. The “apoptosis in the presence of TNFα” value with MCF-7 cells [7] is listed as “increases apoptosis”.
